Assay results as given in PubChem BioAssay (NCI).
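Dose response: 5 concentrations. Exposure: 48 h. Format: 96-well plates. Endpoint: linear interpolation; highest concentration if not reached. GI50 is the concentration that inhibits growth by half. Definition used: TGI = concentration required for complete inhibition of growth.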

What was measured:
Experiment in all cases: NCI anticancer screen, dose series, 48 h
NCI-H522 lung = tested on: NCI-H522 lung
HS 578T breast = tested on: HS 578T breast
IGROV1 ovarian = tested on: IGROV1 ovarian
A498 renal = tested on: A498 renal
OVCAR-3 ovarian = tested on: OVCAR-3 ovarian
NCI-H460 lung = tested on: NCI-H460 lung
KM12 colon = tested on: KM12 colon
HT29 colon = tested on: HT29 colon
SNB-19 CNS = tested on: SNB-19 CNS
SNB-75 CNS = tested on: SNB-75 CNS
OVCAR-5 ovarian = tested on: OVCAR-5 ovarian
CAKI-1 renal = tested on: CAKI-1 renal
MCF7 breast = tested on: MCF7 breast
COLO 205 colon = tested on: COLO 205 colon
HOP-92 NSCLC = tested on: HOP-92 NSCLC
PC-3 prostate = tested on: PC-3 prostate
SK-OV-3 ovarian = tested on: SK-OV-3 ovarian
SF-295 CNS = tested on: SF-295 CNS
NCI-H226 lung = tested on: NCI-H226 lung
T-47D breast = tested on: T-47D breast
UO-31 renal = tested on: UO-31 renal
NCI/ADR-RES ovarian = tested on: NCI/ADR-RES ovarian
HCT-116 colon = tested on: HCT-116 colon
CCRF-CEM leukemia = tested on: CCRF-CEM leukemia
M14 melanoma = tested on: M14 melanoma
K-562 leukemia = tested on: K-562 leukemia
SF-539 CNS = tested on: SF-539 CNS
MDA-MB-231 breast = tested on: MDA-MB-231 breast
RXF 393 renal = tested on: RXF 393 renal
SW-620 colon = tested on: SW-620 colon
HCT-15 colon = tested on: HCT-15 colon
ACHN renal = tested on: ACHN renal
RPMI-8226 leukemia = tested on: RPMI-8226 leukemia
OVCAR-8 ovarian = tested on: OVCAR-8 ovarian
OVCAR-4 ovarian = tested on: OVCAR-4 ovarian
UACC-62 melanoma = tested on: UACC-62 melanoma
MDA-MB-435 = tested on: MDA-MB-435
DU-145 prostate = tested on: DU-145 prostate
MALME-3M melanoma = tested on: MALME-3M melanoma
SK-MEL-28 melanoma = tested on: SK-MEL-28 melanoma
SK-MEL-2 melanoma = tested on: SK-MEL-2 melanoma
NCI-H23 lung = tested on: NCI-H23 lung
HCC-2998 colon = tested on: HCC-2998 colon
TK-10 renal = tested on: TK-10 renal
SR leukemia = tested on: SR leukemia
SN12C renal = tested on: SN12C renal
SK-MEL-5 melanoma = tested on: SK-MEL-5 melanoma
A549 NSCLC = tested on: A549 NSCLC
U251 CNS = tested on: U251 CNS
UACC-257 melanoma = tested on: UACC-257 melanoma
786-0 renal = tested on: 786-0 renal
BT-549 breast = tested on: BT-549 breast
LOX IMVI melanoma = tested on: LOX IMVI melanoma
HOP-62 NSCLC = tested on: HOP-62 NSCLC
HL-60(TB) leukemia = tested on: HL-60(TB) leukemia
EKVX NSCLC = tested on: EKVX NSCLC
MOLT-4 leukemia = tested on: MOLT-4 leukemia
SF-268 CNS = tested on: SF-268 CNS

## COc1cc(/C=C/C(=O)C(C(=O)/C=C/c2ccc(OC(=O)CCNc3nnc(C)s3)c(OC)c2)C(=O)CCNc2nnc(C)s2)ccc1OC(=O)CCNc1nnc(C)s1
NCI-H522 lung
  GI50: 2.49 µM
  TGI: 7.79 µM
HS 578T breast
  GI50: 2.77 µM
  TGI: 9.7 µM
IGROV1 ovarian
  GI50: 1.98 µM
  TGI: 4.47 µM
A498 renal
  GI50: 2.51 µM
  TGI: 6.67 µM
OVCAR-3 ovarian
  GI50: 2.4 µM
  TGI: 6.95 µM
NCI-H460 lung
  GI50: 2.2 µM
  TGI: 4.7 µM
KM12 colon
  GI50: 1.63 µM
  TGI: 3.18 µM
HT29 colon
  GI50: 1.63 µM
  TGI: 3.56 µM
SNB-19 CNS
  GI50: 4.79 µM
  TGI: 18.3 µM
SNB-75 CNS
  GI50: 6.19 µM
  TGI: 34.5 µM
OVCAR-5 ovarian
  GI50: 2.89 µM
  TGI: 7.12 µM
CAKI-1 renal
  GI50: 2.86 µM
  TGI: > 34.2 µM
MCF7 breast
  GI50: 2.16 µM
  TGI: 12.6 µM
COLO 205 colon
  GI50: 2.57 µM
  TGI: 6.94 µM
HOP-92 NSCLC
  GI50: 2.48 µM
  TGI: 8.4 µM
PC-3 prostate
  GI50: 2.85 µM
  TGI: 15.4 µM
SK-OV-3 ovarian
  GI50: 4.65 µM
  TGI: 23.6 µM
SF-295 CNS
  GI50: 6.8 µM
  TGI: 20.2 µM
NCI-H226 lung
  GI50: 2.64 µM
  TGI: 8.12 µM
T-47D breast
  GI50: 4.14 µM
  TGI: > 47.5 µM
UO-31 renal
  GI50: 1.62 µM
  TGI: 3.67 µM
NCI/ADR-RES ovarian
  GI50: 3.87 µM
  TGI: > 38.8 µM
HCT-116 colon
  GI50: 1.65 µM
  TGI: 3.81 µM
CCRF-CEM leukemia
  GI50: 1.09 µM
  TGI: 2.51 µM
M14 melanoma
  GI50: 3.11 µM
  TGI: 11 µM
K-562 leukemia
  GI50: 2.23 µM
  TGI: 8.01 µM
SF-539 CNS
  GI50: 2.43 µM
  TGI: 6.03 µM
MDA-MB-231 breast
  GI50: 2.23 µM
  TGI: 7.4 µM
RXF 393 renal
  GI50: 1.3 µM
  TGI: 3.22 µM
SW-620 colon
  GI50: 1.64 µM
  TGI: 3.33 µM
HCT-15 colon
  GI50: 2.47 µM
  TGI: 5.86 µM
ACHN renal
  GI50: 2.28 µM
  TGI: 5.22 µM
RPMI-8226 leukemia
  GI50: 1.85 µM
  TGI: 4.86 µM
OVCAR-8 ovarian
  GI50: 2.93 µM
  TGI: 16.7 µM
OVCAR-4 ovarian
  GI50: 4.76 µM
  TGI: > 61.5 µM
UACC-62 melanoma
  GI50: 1.73 µM
  TGI: 3.57 µM
MDA-MB-435
  GI50: 2.06 µM
  TGI: 6.98 µM
DU-145 prostate
  GI50: 2.27 µM
  TGI: 5.61 µM
MALME-3M melanoma
  GI50: 2.72 µM
  TGI: 6.51 µM
SK-MEL-28 melanoma
  GI50: 1.75 µM
  TGI: 4.02 µM
SK-MEL-2 melanoma
  GI50: 2.85 µM
  TGI: 12.5 µM
NCI-H23 lung
  GI50: 3.19 µM
  TGI: 18.4 µM
HCC-2998 colon
  GI50: 1.77 µM
  TGI: 3.2 µM
TK-10 renal
  GI50: 4.03 µM
  TGI: 13.7 µM
SR leukemia
  GI50: 1.18 µM
  TGI: 3.31 µM
SN12C renal
  GI50: 2.49 µM
  TGI: 10.2 µM
SK-MEL-5 melanoma
  GI50: 1.87 µM
  TGI: 4.52 µM
A549 NSCLC
  GI50: 2.7 µM
  TGI: 7.87 µM
U251 CNS
  GI50: 2.48 µM
  TGI: 7.35 µM
UACC-257 melanoma
  GI50: 2.64 µM
  TGI: 8.31 µM
786-0 renal
  GI50: 2.58 µM
  TGI: 9.51 µM
BT-549 breast
  GI50: 2.36 µM
  TGI: 5.77 µM
LOX IMVI melanoma
  GI50: 1.89 µM
  TGI: 3.84 µM
HOP-62 NSCLC
  GI50: 5.02 µM
  TGI: > 31.8 µM
HL-60(TB) leukemia
  GI50: 1.77 µM
  TGI: 3.93 µM
EKVX NSCLC
  GI50: 3.8 µM
  TGI: 14.8 µM
MOLT-4 leukemia
  GI50: 1.64 µM
  TGI: 3.89 µM
SF-268 CNS
  GI50: 2.64 µM
  TGI: 11.2 µM

## CC(=O)Nc1ccc2c(c1)C(=O)c1cccc(F)c1-2
NCI-H522 lung
  TGI: > 100 µM
HS 578T breast
  TGI: > 100 µM
IGROV1 ovarian
  TGI: > 100 µM
A498 renal
  GI50: 31.3 µM
  TGI: > 100 µM
OVCAR-3 ovarian
  TGI: > 100 µM
NCI-H460 lung
  TGI: > 100 µM
KM12 colon
  TGI: > 35 µM
HT29 colon
  TGI: > 100 µM
SNB-19 CNS
  TGI: > 100 µM
SNB-75 CNS
  TGI: > 100 µM
OVCAR-5 ovarian
  TGI: > 100 µM
CAKI-1 renal
  TGI: > 100 µM
MCF7 breast
  TGI: > 63.9 µM
COLO 205 colon
  TGI: > 100 µM
HOP-92 NSCLC
  TGI: 97.7 µM
PC-3 prostate
  TGI: > 100 µM
SK-OV-3 ovarian
  TGI: > 100 µM
SF-295 CNS
  TGI: > 100 µM
NCI-H226 lung
  TGI: > 100 µM
T-47D breast
  TGI: > 100 µM
UO-31 renal
  TGI: > 100 µM
NCI/ADR-RES ovarian
  TGI: > 100 µM
HCT-116 colon
  TGI: > 81.7 µM
CCRF-CEM leukemia
  TGI: > 100 µM
M14 melanoma
  TGI: > 100 µM
K-562 leukemia
  TGI: > 100 µM
SF-539 CNS
  TGI: > 100 µM
MDA-MB-231 breast
  TGI: > 100 µM
RXF 393 renal
  TGI: > 91.2 µM
SW-620 colon
  TGI: > 100 µM
HCT-15 colon
  TGI: > 80.1 µM
ACHN renal
  TGI: > 100 µM
RPMI-8226 leukemia
  TGI: > 100 µM
OVCAR-8 ovarian
  TGI: > 100 µM
OVCAR-4 ovarian
  TGI: > 100 µM
UACC-62 melanoma
  TGI: > 100 µM
MDA-MB-435
  TGI: > 100 µM
DU-145 prostate
  TGI: > 100 µM
MALME-3M melanoma
  TGI: > 100 µM
SK-MEL-28 melanoma
  TGI: > 100 µM
SK-MEL-2 melanoma
  TGI: > 100 µM
NCI-H23 lung
  TGI: > 100 µM
HCC-2998 colon
  GI50: > 100 µM
  TGI: > 100 µM
TK-10 renal
  TGI: > 100 µM
SR leukemia
  TGI: > 71.4 µM
SN12C renal
  TGI: > 100 µM
SK-MEL-5 melanoma
  TGI: > 100 µM
A549 NSCLC
  TGI: > 100 µM
U251 CNS
  TGI: > 100 µM
UACC-257 melanoma
  TGI: > 100 µM
786-0 renal
  TGI: > 100 µM
BT-549 breast
  TGI: > 100 µM
LOX IMVI melanoma
  TGI: > 100 µM
HOP-62 NSCLC
  TGI: > 100 µM
HL-60(TB) leukemia
  TGI: > 100 µM
EKVX NSCLC
  TGI: > 100 µM
MOLT-4 leukemia
  TGI: > 100 µM
SF-268 CNS
  TGI: > 100 µM
